Values after ≈ are worked out from the molar mass of the structure shown.
Columns and labels:
[1] = Water solubility by UV-Vis (Lambert–Beer law); format: physicochemical; conditions: thermodynamic from solid, saturated aqueous solution, 30× dilution, room temperature / 35 °C (method)
Excerpt: We diluted this solution into a series of working solutions to measure their UV-Vis spectra.

Proteus vulgaris = test: In vitro antibacterial activity (MIC/MBC, doubling dilution); format: cell-based; conditions: P. vulgaris, 37 °C, 24 h
Method: (§1) The clinically typical pathogens (Staphylococcus aureus, Escherichia coli, Pseudomonas aeruginosa, Salmonellosis typhoidal and Proteus vulgaris) were obtained from the Department of Microbiology and Immunology of Guangxi Medical University. We cultured the bacterial suspension of five pathogens in bouillon culture-medium at 37 °C, and diluted it into 0.5 McFarland Standard with bioclean normal saline (the volume ratio of each bacterial suspension and bioclean normal saline was 1:1000, and the concentration of bacterial suspension was 1~2 × 10^8 CFU/mL). […] We carried out the assays for MIC and MBC evaluation by doubling the dilution under sterile operation on the clean bench. To be specific, we set the sterile test tubes numbered 1–10 for comparison according to the half-dilution method. We added the broth medium to each test tube to fix the final volume to be 2 mL. […] Then, we filled each tube with 50 μL of inoculated bacteria colony, except for tube no. 9, which was the negative control. The final colony concentration in each test tube was 2 × 10^5 CFU/mL. Tube no. 10 was set as a blank without the tested drug. […] We repeated all tests in triplicate.

Pseudomonas aeruginosa = test: as above; format: cell-based; conditions: P. aeruginosa, 37 °C, 24 h
Method: as §1

Staphylococcus aureus = test: as above; format: cell-based; conditions: S. aureus, 37 °C, 24 h
Method: as §1

[2] = rat, in vivo, po
KM mice = format: in vivo; conditions: high-dose group, dead mice, HE staining
Method: After the acute toxicity test, the dead mice after oral administration and the surviving mice at the end of the observation period were promptly dissected and pathologically examined. […] We dissected the important organs (heart, liver, spleen, lung, kidney, large intestine, and small intestine) of dead mice and normal mice in the high-dose group of each drug solution. Then, the main organs were fixed in 10% buffered formalin and embedded in paraffin for 1–4 h. They were histopathologically examined under the optical microscope after slicing and staining with hematoxylin-eosin (HE) staining. No fixed parameters were compared between the treatment and control groups.

For `CCN1CCN(c2cc3c(cc2F)c(=O)c(C(=O)O)cn3C2CC2)CC1` [EFX, enrofloxacin, reference compound], the solubility [1] was 0.204 mg/mL (≈ 568 µM), the MBC (Proteus vulgaris) was 0.125 mg/L (≈ 0.348 µM) and the MIC (Proteus vulgaris) was 0.125 mg/L (≈ 0.348 µM). The MBC (Pseudomonas aeruginosa) was 0.125 mg/L (≈ 0.348 µM), the MIC (Pseudomonas aeruginosa) was 0.125 mg/L (≈ 0.348 µM) and the MBC (Staphylococcus aureus) was 0.25 mg/L (≈ 0.696 µM). It also gave an MIC (Staphylococcus aureus) of 0.25 mg/L (≈ 0.696 µM), a Cl ([2]; male, SD) of 0.037 L/h/kg and a Vd ([2]; male, SD) of 1.05316 L/kg. The Tmax [2] was 1 H.
In the case of `CCN1CCN(c2cc3c(cc2F)c(=O)c(C(=O)[O-])cn3C2CC2)CC1.CCN1CCN(c2cc3c(cc2F)c(=O)c(C(=O)[O-])cn3C2CC2)CC1.O.O.O.O.[Ca+2]` [EFX-Ca, [Ca(EFX)2(H2O)4]·H2O], the “histopathological finding in kidney tissue” value (KM mice) is reported as “enlargement of the renal capsule” and the “histopathological finding in lung tissue” value (KM mice) is reported as “significant inflammatory cell infiltration of the lung tissue”.
